IC50 data for 28 compounds are collected here from US20250346593A1, “IMIDAZO(1,2-1)PYRIDINE DERIVATIVES AS RIPK2 INHIBITORS” (Interline Therapeutics, Inc., priority 2022, published 2025).

The target of experiment [1] is GST-RIPK2 fusion protein (human RIPK2 amino acids 1-310) (Homo sapiens (Human), UniProt O43353). In words: RIPK2 binding competition assay (TR-FRET, Tracer 199). (In general: Time-resolved FRET reads energy transfer from a long-lived donor to a nearby acceptor.)
Experiment [2] relates to NF-κB pathway (SEAP) in THP1-Dual cells. In words: THP-1 Dual cell SEAP assay (L18-MDP stimulated). The format is cell-based. The following applies: Homo sapiens, THP1-Dual, read-out: NFkB THP1 IC50.
Setting [3] is: read-out: RIPK2 IC50, RIPK2 binding competition assay.

Read-outs that look alike come from different tables or passages of the source.

Chain of GST-RIPK2 fusion protein (human RIPK2 amino acids 1-310) (O43353 1-310): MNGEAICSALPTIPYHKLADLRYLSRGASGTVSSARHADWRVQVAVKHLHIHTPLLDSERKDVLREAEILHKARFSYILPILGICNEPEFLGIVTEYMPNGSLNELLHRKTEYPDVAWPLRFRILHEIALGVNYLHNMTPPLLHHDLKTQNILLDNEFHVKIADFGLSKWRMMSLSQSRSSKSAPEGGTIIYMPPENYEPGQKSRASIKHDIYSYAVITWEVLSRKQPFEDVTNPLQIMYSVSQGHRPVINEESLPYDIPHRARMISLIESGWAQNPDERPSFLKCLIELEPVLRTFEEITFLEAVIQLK

As to `COc1cc2ncc(-c3cc(F)nc(N4CCN(C)CC4)c3)n2cc1S(=O)(=O)C(C)(C)C` [Example 223, 1-{6-fluoro-4-[7-methoxy-6-(2-methylpropane-2-sulfonyl)imidazo[1,2-a]pyridin-3-yl]pyridin-2-yl}-4-methylpiperazine], the figures for the 50% inhibitory concentration (IC50) in experiment [1] and in experiment [2] were 2.5 to 20 nM and 50 to 250 nM, respectively.

For `COc1cc2ncc(-c3cc(F)nc(NCC(C)(C)O)c3)n2cc1S(=O)(=O)C(C)(C)C` [Example 224, 1-({6-fluoro-4-[7-methoxy-6-(2-methylpropane-2-sulfonyl)imidazo[1,2-a]pyridin-3-yl]pyridin-2-yl}amino)-2-methylpropan-2-ol], the IC50 was 1 to 2.5 nM in experiment [1] and less than 50 nM in experiment [2].

`COc1cc2ncc(-c3cc(F)nc(NC[C@@H](C)O)c3)n2cc1S(=O)(=O)C(C)(C)C` [Example 226, (2R)-1-({6-fluoro-4-[7-methoxy-6-(2-methylpropane-2-sulfonyl)imidazo[1,2-a]pyridin-3-yl]pyridin-2-yl}amino)propan-2-ol]: the half-maximal inhibitory concentration (IC50) in experiment [1] was 1 to 2.5 nM; in experiment [2] it was less than 50 nM.

As for `COc1cc2ncc(-c3cc(F)nc(NC[C@H](C)O)c3)n2cc1S(=O)(=O)C(C)(C)C` [Example 227, (2S)-1-({6-fluoro-4-[7-methoxy-6-(2-methylpropane-2-sulfonyl)imidazo[1,2-a]pyridin-3-yl]pyridin-2-yl}amino)propan-2-ol], the values for the IC50 in experiment [1] and in experiment [2] were 1 to 2.5 nM and less than 50 nM, respectively.

Consider `COc1cc2ncc(-c3cc(F)nc(NCC(F)(F)CO)c3)n2cc1S(=O)(=O)C(C)(C)C` [Example 228, 2,2-difluoro-3-({6-fluoro-4-[7-methoxy-6-(2-methylpropane-2-sulfonyl)imidazo[1,2-a]pyridin-3-yl]pyridin-2-yl}amino)propan-1-ol], for which the IC50 in experiment [1] (setting [3]) was less than 1 nM; in experiment [2] it was less than 50 nM.

As for `COc1cc2ncc(-c3cc(F)nc(NC[C@@H](F)CO)c3)n2cc1S(=O)(=O)C(C)(C)C` [Example 229, (2R)-2-fluoro-3-({6-fluoro-4-[7-methoxy-6-(2-methylpropane-2-sulfonyl)imidazo[1,2-a]pyridin-3-yl]pyridin-2-yl}amino)propan-1-ol], the values for the IC50 in experiment [1] (setting [3]) and in experiment [2] were less than 1 nM and less than 50 nM, respectively.

As for `COc1cc2ncc(-c3cc(F)nc(N[C@H](C)CCO)c3)n2cc1S(=O)(=O)C(C)(C)C` [Example 230, (3R)-3-({6-fluoro-4-[7-methoxy-6-(2-methylpropane-2-sulfonyl)imidazo[1,2-a]pyridin-3-yl]pyridin-2-yl}amino)butan-1-ol], the IC50 in experiment [1] lay in the range of 2.5 to 20 nM; in experiment [2], 250 to 1000 nM.

As for `COc1cc2ncc(-c3cc(F)nc(NC[C@H](F)CO)c3)n2cc1S(=O)(=O)C(C)(C)C` [Example 231, (2S)-2-fluoro-3-({6-fluoro-4-[7-methoxy-6-(2-methylpropane-2-sulfonyl)imidazo[1,2-a]pyridin-3-yl]pyridin-2-yl}amino)propan-1-ol], the IC50 in experiment [1] (setting [3]) was less than 1 nM; in experiment [2], less than 50 nM.

As to `COc1cc2ncc(-c3cc(NCCCO)nc(C(F)(F)F)c3)n2cc1S(=O)(=O)C(C)(C)C` [Example 232, 3-({4-[7-methoxy-6-(2-methylpropane-2-sulfonyl)imidazo[1,2-a]pyridin-3-yl]-6-(trifluoromethyl)pyridin-2-yl}amino)propan-1-ol], the results for the IC50 in experiment [1] and in experiment [2] were 2.5 to 20 nM and 250 to 1000 nM, respectively.

Turning to `COc1cc2ncc(-c3cc(F)nc(NCCOC(F)F)c3)n2cc1S(=O)(=O)C(C)(C)C` [Example 233, 4-(6-(tert-butylsulfonyl)-7-methoxyimidazo[1,2-a]pyridin-3-yl)-N-(2-(difluoromethoxy)ethyl)-6-fluoropyridin-2-amine], the IC50 was less than 1 nM in experiment [1] (setting [3]) and less than 50 nM in experiment [2].

As to `COc1ccn2c(-c3cc(F)nc(NCCCO)c3)cnc2c1` [Example 234, 3-[(6-fluoro-4-{7-methoxyimidazo[1,2-a]pyridin-3-yl}pyridin-2-yl)amino]propan-1-ol], the half-inhibitory concentration (IC50) in experiment [1] is 2.5 to 20 nM; in experiment [2], 50 to 250 nM.

In the case of `COc1cc2ncc(-c3cc(F)nc(NCCSC)c3)n2cc1S(=O)(=O)C(C)(C)C` [Example 235, 4-(6-(tert-butylsulfonyl)-7-methoxyimidazo[1,2-a]pyridin-3-yl)-6-fluoro-N-(2-(methylthio)ethyl) pyridin-2-amine], the half-inhibitory concentration (IC50) was 1 to 2.5 nM in experiment [1] and less than 50 nM in experiment [2].

With `COc1cc2ncc(-c3cc(F)nc(N[C@@H](C)CCO)c3)n2cc1S(=O)(=O)C(C)(C)C` [Example 236, (3S)-3-({6-fluoro-4-[7-methoxy-6-(2-methylpropane-2-sulfonyl)imidazo[1,2-a]pyridin-3-yl]pyridin-2-yl}amino)butan-1-ol], the IC50 in experiment [1] (setting [3]) is less than 1 nM; in experiment [2], less than 50 nM.

In the case of `COc1cc2ncc(-c3cc(F)nc(NC(C)(C)CO)c3)n2cc1S(=O)(=O)C(C)(C)C` [Example 237, 2-({6-fluoro-4-[7-methoxy-6-(2-methylpropane-2-sulfonyl)imidazo[1,2-a]pyridin-3-yl]pyridin-2-yl}amino)-2-methylpropan-1-ol], the values for the IC50 in experiment [1] and in experiment [2] were 2.5 to 20 nM and 50 to 250 nM, respectively.

As to `CCOc1cc2ncc(-c3cc(F)nc(NCCCO)c3)n2cc1C1(F)CCN(C)CC1` [Example 242, 3-({4-[7-ethoxy-6-(4-fluoro-1-methylpiperidin-4-yl)imidazo[1,2-a]pyridin-3-yl]-6-fluoropyridin-2-yl}amino)propan-1-ol], the figures for the half-inhibitory concentration (IC50) in experiment [1] (setting [3]) and in experiment [2] were less than 1 nM and less than 50 nM, respectively.

On to `CCOc1cc2ncc(-c3cc(F)nc(NCCCO)c3)n2cc1S(=O)(=O)C(C)C` [Example 243, 3-({4-[7-ethoxy-6-(propane-2-sulfonyl)imidazo[1,2-a]pyridin-3-yl]-6-fluoropyridin-2-yl}amino)propan-1-ol], for which the values for the IC50 in experiment [1] (setting [3]) and in experiment [2] were less than 1 nM and less than 50 nM, respectively.

Regarding `COc1cc2ncc(-c3ccnc(NCCCO)c3)n2cc1S(=O)(=O)C(C)(C)C` [Example 247, 3-({4-[7-methoxy-6-(2-methylpropane-2-sulfonyl)imidazo[1,2-a]pyridin-3-yl]pyridin-2-yl}amino)propan-1-ol], the IC50 in experiment [1] was 2.5 to 20 nM; in experiment [2], less than 50 nM.

With `COc1cc2ncc(-c3cc(F)nc(NCCCO)c3)n2cc1C(=O)N(C)C` [Example 248, 3-{2-fluoro-6-[(3-hydroxypropyl)amino]pyridin-4-yl}-7-methoxy-N,N-dimethylimidazo[1,2-a]pyridine-6-carboxamide], the IC50 in experiment [1] lay within 2.5 to 20 nM; in experiment [2], 50 to 250 nM.

Turning to `COc1cc2ncc(-c3cc(F)nc(NCC(C)(C)O)c3)n2cc1C(=O)N(C)C` [Example 249, 3-{2-fluoro-6-[(2-hydroxy-2-methylpropyl)amino]pyridin-4-yl}-7-methoxy-N,N-dimethylimidazo[1,2-a]pyridine-6-carboxamide], the IC50 in experiment [1] (setting [3]) is greater than 20 nM; in experiment [2], 250 to 1000 nM.

Take `COc1cc2ncc(-c3cc(F)nc(NCCCO)c3)n2cc1CO` [Example 250, 3-({6-fluoro-4-[6-(hydroxymethyl)-7-methoxyimidazo[1,2-a]pyridin-3-yl]pyridin-2-yl}amino)propan-1-ol]: the half-maximal inhibitory concentration (IC50) in experiment [1] was in the range of 2.5 to 20 nM; in experiment [2] it was 50 to 250 nM.

As for `CNC(=O)c1cn2c(-c3cc(F)nc(NCCCO)c3)cnc2cc1OC` [Example 251, 3-{2-fluoro-6-[(3-hydroxypropyl)amino]pyridin-4-yl}-7-methoxy-N-methylimidazo[1,2-a]pyridine-6-carboxamide], the IC50 in experiment [1] was 1 to 2.5 nM; in experiment [2] it was less than 50 nM.

With `COc1cc2ncc(-c3cc(NCCCO)cc(F)n3)n2cc1S(=O)(=O)C(C)(C)C` [Example 252, 3-((2-(6-(tert-butylsulfonyl)-7-methoxyimidazo[1,2-a]pyridin-3-yl)-6-fluoropyridin-4-yl)amino)propan-1-ol], the half-inhibitory concentration (IC50) in experiment [1] (setting [3]) was greater than 20 nM; in experiment [2] it was 250 to 1000 nM.

For `CCCS(=O)(=O)Nc1cc(-c2cnc3cc(OC)c(S(=O)(=O)C(C)(C)C)cn23)cnc1N` [Example 253, N-(2-amino-5-(6-(tert-butylsulfonyl)-7-methoxyimidazo[1,2-a]pyridin-3-yl)pyridin-3-yl)propane-1-sulfonamide], the results for the IC50 in experiment [1] (setting [3]) and in experiment [2] were greater than 20 nM and greater than 1000 nM, respectively.

For `CCCS(=O)(=O)Nc1cncc(-c2cnc3cc(OC)c(S(=O)(=O)C(C)(C)C)cn23)c1` [Example 254], the values for the half-maximal inhibitory concentration (IC50) in experiment [1] (setting [3]) and in experiment [2] were greater than 20 nM and greater than 1000 nM, respectively.

Consider `CCCS(=O)(=O)Nc1c(F)ccc(-c2cnc3cc(OC)c(S(=O)(=O)C(C)(C)C)cn23)c1F` [Example 255, N-(3-(6-(tert-butylsulfonyl)-7-methoxyimidazo[1,2-a]pyridin-3-yl)-2,6-difluorophenyl)propane-1-sulfonamide], for which the IC50 in experiment [1] is greater than 20 nM; in experiment [2], greater than 1000 nM.

Regarding `CCCS(=O)(=O)N(C)c1cccc(-c2cnc3cc(OC)c(S(=O)(=O)C(C)(C)C)cn23)c1` [Example 256, N-(3-(6-(tert-butylsulfonyl)-7-methoxyimidazo[1,2-a]pyridin-3-yl)phenyl)-N-methylpropane-1-sulfonamide], the IC50 in experiment [1] (setting [3]) was greater than 20 nM; in experiment [2], greater than 1000 nM.

With `CCCS(=O)(=O)Nc1c(OC)ccc(-c2cnc3cc(OC)c(S(=O)(=O)C(C)(C)C)cn23)c1F` [Example 257, N-(3-(6-(tert-butylsulfonyl)-7-methoxyimidazo[1,2-a]pyridin-3-yl)-2-fluoro-6-methoxyphenyl)propane-1-sulfonamide], the IC50 was greater than 20 nM in experiment [1] (setting [3]) and greater than 1000 nM in experiment [2].

For `CCCS(=O)(=O)Nc1cccc(-c2cnc3cc(OC)c(S(=O)(=O)C(C)(C)C)cn23)c1F` [Example 258, N-(3-(6-(tert-butylsulfonyl)-7-methoxyimidazo[1,2-a]pyridin-3-yl)-2-fluorophenyl)propane-1-sulfonamide], the values for the IC50 in experiment [1] (setting [3]) and in experiment [2] were greater than 20 nM and greater than 1000 nM, respectively.

What is called IC50 is the midpoint of a concentration-inhibition curve.
